According to patent publication US4684664A, “Derivatives of β-(4-isocyano-1,2,3,4-diepoxycyclopentyl) acrylic acid” (Kureha Kagaku Kogyo Kabushiki Kaisha, priority 1984, dated 1987):
Values after ≈ are worked out from the molar mass of the structure shown.

Columns and labels:
Assay type in all cases: cell-based
[1] = system: Staphylococcus aureus FDA 209PJc-1; experiment: Antibacterial activity, agar-dilution MIC, organism No. 1; conditions: Staphylococcus aureus, FDA209PJC1; Organism No. 1, bouillon-agar; read-out: Minimum Inhibitory Concentration
How it was run: (§1)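 An agar-dilution procedure on bouillon-agar medium was applied, and each MIC was recorded as micrograms of specimen per ml of medium.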

[2] = system: Staphylococcus aureus Terajima; experiment: Antibacterial activity, agar-dilution MIC, organism No. 2; conditions: Staphylococcus aureus; Organism No. 2, bouillon-agar; read-out: Minimum Inhibitory Concentration
How it was run: as §1

[3] = system: Staphylococcus aureus MS 353; experiment: Antibacterial activity, agar-dilution MIC, organism No. 3; conditions: Staphylococcus aureus, MS353; Organism No. 3, bouillon-agar; read-out: Minimum Inhibitory Concentration
How it was run: as §1

[4] = system: Streptococcus pyogenes Cook; experiment: Antibacterial activity, agar-dilution MIC, organism No. 4; conditions: Streptococcus pyogenes; Organism No. 4, bouillon-agar; read-out: Minimum Inhibitory Concentration
How it was run: as §1

[5] = system: Escherichia coli NIHJ-JC-2; experiment: Antibacterial activity, agar-dilution MIC, organism No. 5; conditions: Escherichia coli, NIHJJC2; Organism No. 5, bouillon-agar; read-out: Minimum Inhibitory Concentration
How it was run: as §1

[6] = system: Escherichia coli K12 C600 IAM 1264; experiment: Antibacterial activity, agar-dilution MIC, organism No. 6; conditions: Escherichia coli, IAM1264; Organism No. 6, bouillon-agar; read-out: Minimum Inhibitory Concentration
How it was run: as §1

[7] = system: Klebsiella pneumoniae PCI-602; experiment: Antibacterial activity, agar-dilution MIC, organism No. 7; conditions: Klebsiella pneumoniae, PCI602; Organism No. 7, bouillon-agar; read-out: Minimum Inhibitory Concentration
How it was run: as §1

[8] = system: Salmonella typhimurium IID 971; experiment: Antibacterial activity, agar-dilution MIC, organism No. 8; conditions: Salmonella enterica; Organism No. 8, bouillon-agar; read-out: Minimum Inhibitory Concentration
How it was run: as §1

[9] = system: Salmonella typhi 901; experiment: Antibacterial activity, agar-dilution MIC, organism No. 9; conditions: Salmonella enterica, TYPHI, read-out: Minimum Inhibitory Concentration
How it was run: as §1

[10] = system: Salmonella paratyphi-A 1015; experiment: Antibacterial activity, agar-dilution MIC, organism No. 10; conditions: Salmonella enterica, PARATYPHI, read-out: Minimum Inhibitory Concentration
How it was run: as §1

[11] = system: Salmonella shottmuelleri 8006; experiment: Antibacterial activity, agar-dilution MIC, organism No. 11; conditions: Salmonella, 8006; Organism No. 11, bouillon-agar; read-out: Minimum Inhibitory Concentration
How it was run: as §1

[12] = system: Salmonella enteritidis G 14; experiment: Antibacterial activity, agar-dilution MIC, organism No. 12; conditions: Salmonella enterica, ENTERITIDIS; Organism No. 12, bouillon-agar; read-out: Minimum Inhibitory Concentration
How it was run: as §1

[13] = system: Serratia marcescens IAM 1184; experiment: Antibacterial activity, agar-dilution MIC, organism No. 13; conditions: Serratia marcescens, IAM1184; Organism No. 13, bouillon-agar; read-out: Minimum Inhibitory Concentration
Text: Agar-dilution method was used for determination of the antibacterial activity and antifungal activity while using bouillon-agar culture medium, and the minimum inhibitory concentration of the specimen was expressed by μg/ml of the culture medium.

[14] = system: Bacillus subtilis ATCC 6633; experiment: Antibacterial activity, agar-dilution MIC, organism No. 14; conditions: Bacillus subtilis, ATCC6633; Organism No. 14, bouillon-agar; read-out: Minimum Inhibitory Concentration
How it was run: as §1

[15] = system: Pseudomonas aeruginosa IFO 3445; experiment: Antibacterial activity, agar-dilution MIC, organism No. 15; conditions: Pseudomonas aeruginosa, IFO3445; Organism No. 15, bouillon-agar; read-out: Minimum Inhibitory Concentration
How it was run: as §1

[16] = system: Pseudomonas aeruginosa NCTC 10490; experiment: Antibacterial activity, agar-dilution MIC, organism No. 16; conditions: Pseudomonas aeruginosa, NCTC10490; Organism No. 16, bouillon-agar; read-out: Minimum Inhibitory Concentration
How it was run: as §1

[17] = system: Pseudomonas aeruginosa PAO 1; experiment: Antibacterial activity, agar-dilution MIC, organism No. 17; conditions: Pseudomonas aeruginosa, PAO1; Organism No. 17, bouillon-agar; read-out: Minimum Inhibitory Concentration
How it was run: as §1

[18] = system: Proteus morganii IFO 3848; experiment: Antibacterial activity, agar-dilution MIC, organism No. 18; conditions: Morganella morganii, IFO3848; Organism No. 18, bouillon-agar; read-out: Minimum Inhibitory Concentration
How it was run: as §1

[19] = system: Proteus mirabilis IFO 3849; experiment: Antibacterial activity, agar-dilution MIC, organism No. 19; conditions: Proteus mirabilis, IFO3849; Organism No. 19, bouillon-agar; read-out: Minimum Inhibitory Concentration
How it was run: as §1

[20] = system: Proteus vulgaris OX-19; experiment: Antibacterial activity, agar-dilution MIC, organism No. 20; conditions: Proteus vulgaris, OX19; Organism No. 20, bouillon-agar; read-out: Minimum Inhibitory Concentration
How it was run: as §1

[21] = system: Proteus vulgaris HX-19; experiment: Antibacterial activity, agar-dilution MIC, organism No. 21; conditions: Proteus vulgaris, HX19; Organism No. 21, bouillon-agar; read-out: Minimum Inhibitory Concentration
How it was run: as §1

[22] = system: Proteus rettgeri IFO 3850; experiment: Antibacterial activity, agar-dilution MIC, organism No. 22; conditions: Providencia rettgeri, IFO3850; Organism No. 22, bouillon-agar; read-out: Minimum Inhibitory Concentration
How it was run: as §1

[23] = system: Enterobacter aerogenes ATCC 13048; experiment: Antibacterial activity, agar-dilution MIC, organism No. 23; conditions: Klebsiella aerogenes, ATCC13048; Organism No. 23, bouillon-agar; read-out: Minimum Inhibitory Concentration
How it was run: as §1

[24] = system: Enterobacter cloacae 963; experiment: Antibacterial activity, agar-dilution MIC, organism No. 24; conditions: Enterobacter cloacae, 963; Organism No. 24, bouillon-agar; read-out: Minimum Inhibitory Concentration
How it was run: as §1

[25] = system: Micrococcus luteus ATCC 9341; experiment: Antibacterial activity, agar-dilution MIC, organism No. 25; conditions: Micrococcus luteus, ATCC9341; Organism No. 25, bouillon-agar; read-out: Minimum Inhibitory Concentration
How it was run: as §1

[26] = system: Mycoplasma pneumoniae IID817; experiment: Antimycoplasmal activity, MIC by phenol red colour change, organism No. 28; conditions: Mycoplasma, IID817; Organism No. 28, PPLO broth + 1% glucose, 37° C.; read-out: Minimum Inhibitory Concentration (MIC)
Experimental: Mycoplasma pneumoniae IID817 was used as the test microorganism in a culture medium prepared by adding 1% of glucose to "PPLO broth (manufactured by Difco Co.) liquid culture medium" at 37° C. with phenol red as an indicator, thereby culturing the test microorganism.

[27] = system: Candida albicans IAM 4905; experiment: Antifungal activity, agar-dilution MIC, organism No. 29; conditions: Candida albicans, IAM4905; Organism No. 29, bouillon-agar; read-out: Minimum Inhibitory Concentration
How it was run: as §1

[28] = system: Aspergillus niger IFO 6342; experiment: Antifungal activity, agar-dilution MIC, organism No. 30; conditions: Aspergillus niger, IFO6342; Organism No. 30, bouillon-agar; read-out: Minimum Inhibitory Concentration
How it was run: as §1

[29] = system: Streptococcus pyogenes IFO 3340; experiment: Antibacterial activity, agar-dilution MIC, organism No. 26; conditions: Streptococcus pyogenes, IFO3340; Organism No. 26, bouillon-agar; read-out: Minimum Inhibitory Concentration
How it was run: as §1

[30] = system: Streptococcus faecium IFO 3826; experiment: Antibacterial activity, agar-dilution MIC, organism No. 27; conditions: Enterococcus faecium, IFO3826; Organism No. 27, bouillon-agar; read-out: Minimum Inhibitory Concentration
How it was run: as §1

| Compound | MIC [1] [µg/mL] | MIC [2] [µg/mL] | MIC [3] [µg/mL] | MIC [5] [µg/mL] | MIC [6] [µg/mL] | MIC [7] [µg/mL] | MIC [8] [µg/mL] | MIC [9] [µg/mL] | MIC [10] [µg/mL] | MIC [11] [µg/mL] | MIC [12] [µg/mL] | MIC [13] [µg/mL] | MIC [14] [µg/mL] | MIC [15] [µg/mL] | MIC [16] [µg/mL] | MIC [17] [µg/mL] | MIC [18] [µg/mL] | MIC [19] [µg/mL] | MIC [20] [µg/mL] | MIC [21] [µg/mL] | also measured |
| --- | --- | --- | --- | --- | --- | --- | --- | --- | --- | --- | --- | --- | --- | --- | --- | --- | --- | --- | --- | --- | --- |
| [C-]#[N+]C12CC3(/C=C/C(=O)Nc4nccs4)OC3C1O2 (stereo not shown) [compound 65] | < 0.1 | 0.39 (≈ 1.42 µM) | < 0.1 | 12.5 (≈ 45.4 µM) | 6.25 (≈ 22.7 µM) | 1.56 (≈ 5.67 µM) | 25 (≈ 90.8 µM) | 3.13 (≈ 11.4 µM) | 1.56 (≈ 5.67 µM) | 1.56 (≈ 5.67 µM) | 3.13 (≈ 11.4 µM) | 12.5 (≈ 45.4 µM) | 12.5 (≈ 45.4 µM) | > 200 | > 200 | > 200 | 1.56 (≈ 5.67 µM) | > 200 | 3.13 (≈ 11.4 µM) | 0.2 (≈ 0.727 µM) | MIC [4]: 12.5 µg/mL (≈ 45.4 µM); MIC [22]: 100 µg/mL (≈ 363 µM); MIC [23]: > 200 µg/mL; MIC [24]: > 200 µg/mL; MIC [25]: 0.1 µg/mL (≈ 0.363 µM); MIC [26]: < 0.2 µg/mL; MIC [27]: 12.5 µg/mL (≈ 45.4 µM); MIC [28]: 50 µg/mL (≈ 182 µM) |
| [C-]#[N+]C12CC3(/C=C/C(=O)Nc4ccccc4N)OC3C1O2 (stereo not shown) [compound 61] | 3.13 (≈ 11 µM) | 12.5 (≈ 44.1 µM) | 3.13 (≈ 11 µM) | 12.5 (≈ 44.1 µM) | 12.5 (≈ 44.1 µM) | 1.56 (≈ 5.51 µM) | 6.25 (≈ 22.1 µM) | 3.13 (≈ 11 µM) | 3.13 (≈ 11 µM) | 3.13 (≈ 11 µM) | 3.13 (≈ 11 µM) | 25 (≈ 88.2 µM) | 25 (≈ 88.2 µM) | > 200 | > 200 | > 200 | 3.13 (≈ 11 µM) | 12.5 (≈ 44.1 µM) | 3.13 (≈ 11 µM) | 1.56 (≈ 5.51 µM) | MIC [22]: 3.13 µg/mL (≈ 11 µM); MIC [23]: > 200 µg/mL; MIC [24]: 100 µg/mL (≈ 353 µM); MIC [25]: 0.78 µg/mL (≈ 2.75 µM); MIC [29]: 6.25 µg/mL (≈ 22.1 µM); MIC [30]: 100 µg/mL (≈ 353 µM); MIC [26]: < 0.2 µg/mL; MIC [27]: 25 µg/mL (≈ 88.2 µM); MIC [28]: 100 µg/mL (≈ 353 µM) |
| [C-]#[N+]C12CC3(/C=C/C(=O)Nc4cccc([N+](=O)[O-])c4)OC3C1O2 (stereo not shown) [compound 48] | 0.2 (≈ 0.638 µM) | 0.39 (≈ 1.24 µM) | 0.1 (≈ 0.319 µM) | 25 (≈ 79.8 µM) | 25 (≈ 79.8 µM) | 0.2 (≈ 0.638 µM) | 3.13 (≈ 9.99 µM) | 3.13 (≈ 9.99 µM) | 0.39 (≈ 1.24 µM) | 0.39 (≈ 1.24 µM) | 3.13 (≈ 9.99 µM) | 6.25 (≈ 20 µM) | 6.25 (≈ 20 µM) | > 200 | > 200 | > 200 | 0.2 (≈ 0.638 µM) | 12.5 (≈ 39.9 µM) | < 0.05 | < 0.05 | MIC [22]: 1.56 µg/mL (≈ 4.98 µM); MIC [23]: > 200 µg/mL; MIC [24]: 25 µg/mL (≈ 79.8 µM); MIC [25]: < 0.05 µg/mL; MIC [29]: 0.39 µg/mL (≈ 1.24 µM); MIC [30]: 6.25 µg/mL (≈ 20 µM); MIC [26]: < 0.2 µg/mL; MIC [27]: 3.13 µg/mL (≈ 9.99 µM); MIC [28]: 3.13 µg/mL (≈ 9.99 µM) |
| [C-]#[N+]C12CC3(/C=C/C(=O)Nc4ccc(C(F)(F)F)cc4)OC3C1O2 (stereo not shown) [compound 46] | 0.1 (≈ 0.297 µM) | 0.39 (≈ 1.16 µM) | < 0.05 | > 200 | > 200 | 0.39 (≈ 1.16 µM) | 50 (≈ 149 µM) | 50 (≈ 149 µM) | 0.78 (≈ 2.32 µM) | 0.78 (≈ 2.32 µM) | 25 (≈ 74.3 µM) | 200 (≈ 595 µM) | 6.25 (≈ 18.6 µM) | > 200 | > 200 | > 200 | 1.56 (≈ 4.64 µM) | > 200 | 0.39 (≈ 1.16 µM) | 0.39 (≈ 1.16 µM) | MIC [22]: 200 µg/mL (≈ 595 µM); MIC [23]: > 200 µg/mL; MIC [24]: > 200 µg/mL; MIC [25]: < 0.05 µg/mL; MIC [29]: 3.13 µg/mL (≈ 9.31 µM); MIC [30]: > 200 µg/mL; MIC [26]: < 0.2 µg/mL; MIC [27]: 1.56 µg/mL (≈ 4.64 µM); MIC [28]: 3.13 µg/mL (≈ 9.31 µM) |
